Measurements published in EP0778733B1, “A BASIC PROTEIN COMPOSITION FOR KILLING OR INHIBITING MICROBIAL CELLS” (NOVO NORDISK A/S, priority 1994, dated 1996).

How the values were obtained:
Type in all cases: cell-based
Pseudomonas aeruginosa = assay: Impedimetric MIC / detection time, growing cells in TSB (Bactometer); set-up: key: n.e.: not effective; conditions: Table 4, strain printed as Pseudomonas aeroginosa; determined as in Example 1 (inhibition of at least 100 hours); n.e. = not effective
Description: (§1) Volumes (1.0 ml) of TSB medium were added to Bactometer® wells. Protamine solutions (0.1 ml) were transferred to the wells which were sealed, connected to the Bactometer B123-2 (bioMérieux UK ltd., UK) and incubated at 25°C until a significant detectable increase in the electrical conductivity of the medium was registered and the detection time (DT) was recorded (maximum 100 h). Detection usually occurs when the cell concentration reaches 10^6-10^7 cfu/ml. For the Gram-positive strains the capacitance signal was monitored, while change in conductance was used for Gram-negative strains.
(§2) was measured in the Bactometer modules. The wells (containing 1 ml TSB and 0.1 ml protamine solution) were inoculated with 0.1 ml from a 10^-4 dilution of an inoculum culture, giving a final cell concentration in the well of approximately 10^3 cfu/ml. The concentration of protamine varied from 1 to 4000 µg/ml depending on the sensitivity of the strain investigated.
(§3) Minimum Inhibition Concentration (MIC) was determined as the lowest concentration of protamine resulting in absence of a DT.
(§4) When no DT was measured, the lethal/inhibitory effect on the cells were tested by plating the total well volume.
(§5) The minimum inhibition concentration (MIC) of various-substances was determined as described in Example 1. […]

Pseudomonas fluorescens [1] = assay: as above; set-up: key: n.e.: not effective; conditions: Table 4, determined as in Example 1 (inhibition of at least 100 hours); n.e. = not effective
Description: as §1, §2, §3, §4, §5

Escherichia coli 0157:H7 = assay: as above; conditions: Table 4, strain printed as Escherichia coli; determined as in Example 1 (inhibition of at least 100 hours); n.e. = not effective
Description: as §1, §2, §3, §4
(§6) The minimum inhibition concentration (MIC) of various-substances was determined as described in Example 1.
(§7) The following substances were tested: protamine (A), protamine sulphate (B), a peroxidase enzyme system (i.e. lactoperoxidase/glucoseoxidase (C)), subtilisin A (D), polyarginine (E) having an average molecular weight of about 6 kD and lysozyme (F) (150 000 units/mg; Johansen, C. et al., 1994).

Staphylococcus aureus = assay: as above; conditions: Table 4, determined as in Example 1 (inhibition of at least 100 hours); n.e. = not effective
Description: as §1, §2, §3, §4, §6, §7

Vibrio paraheamolyticus = assay: as above; conditions: Table 4, determined as in Example 1 (inhibition of at least 100 hours); n.e. = not effective
Description: as §1, §2, §3, §4, §6, §7

Listeria monocytogenes = assay: as above; conditions: Table 4, determined as in Example 1 (inhibition of at least 100 hours); n.e. = not effective
Description: as §1
(§8) was measured in the Bactometer modules. […]
as §3, §4, §5
(§9) Further, the influence of cell concentration on the anti-bacterial effect of protamine was tested using the materials and methods described in Example 1, i.e.the correlation between cell concentration and protamine concentration has been measured by the impedimetric assay.

Shewanella putrefaciens = assay: as above; conditions: Table 4, determined as in Example 1 (inhibition of at least 100 hours); n.e. = not effective
Description: as §1, §8, §3, §4, §5, §9

all the tested strains = assay: Comparative impedimetric MIC, all tested strains of Table 4; conditions: summary of Table 4
Description: as §6, §7

Pseudomonas fluorescens [2] = assay: Synergy growth inhibition experiments, impedimetric, factorial design; conditions: each alone: protamine 250 µg/ml, polylysine 500 µg/ml, lactoperoxidase 2 U/ml, glucose oxidase 2 U/ml
Description: Impedimetric measurements carried out as described in example 1 have shown an synergistic effect between basic peptides as protamine, polyarginine or polylysine and lysozyme and/or glucose oxidase and/or the lactoperoxidase enzyme system depending on pH and NaCl concentration.
Growth inhibition experiments were conducted, wherein synergistic and additional effects were determined by mixing compounds in low concentrations not having any activity on their own and using a factoral design. The effects were measured as growth inhibition or a 100% bacteriocidal effect with a total kill of the inoculum.

| Substance | Minimum Inhibitory Concentration (Pseudomonas aeruginosa) | Minimum Inhibitory Concentration (Pseudomonas fluorescens [1]) | Minimum Inhibitory Concentration (Escherichia coli 0157:H7) [µg/mL] | Minimum Inhibitory Concentration (Staphylococcus aureus) [µg/mL] | Minimum Inhibitory Concentration (Vibrio paraheamolyticus) [µg/mL] | Minimum Inhibitory Concentration (Listeria monocytogenes) [µg/mL] | Minimum Inhibitory Concentration (Shewanella putrefaciens) [µg/mL] | effectiveness for inhibiting the tested strains (all the tested strains) | growth inhibition, compound alone (Pseudomonas fluorescens [2]) |
| --- | --- | --- | --- | --- | --- | --- | --- | --- | --- |
| polyarginine | n.e. | n.e. | 1500 | 1500 | 2000 | 2000 | 1500 | effective for inhibiting all strains but Pseudomonas spp. |  |
| polylysine |  |  |  |  |  |  |  |  | not inhibited |
